From US8338565B2, “Macrocyclic compounds for inhibition of tumor necrosis factor alpha” (Ensemble Therapeutics Corporation, priority 2008, dated 2012)
Like-named read-outs stand apart in the source and are kept apart here. Numbered stars: 1 amine (or outer) side, 2 acyl side, 3 side chain; on linkers, the order of the positions; unused ones are H or OH. Bridge positions count the residues as written; N and C are the ends. Square brackets hold non-standard residues; d marks the D form. Peptide text beside a SMILES is read from it. Phe(4-CF3) = N[C@@H](Cc1ccc(C(F)(F)F)cc1)C(=O)O; Phe(4-COOH) = N[C@@H](Cc1ccc(C(=O)O)cc1)C(=O)O; Bip = N[C@@H](Cc1ccc(-c2ccccc2)cc1)C(=O)O; dPhe(4-NH2) = Nc1ccc(C[C@@H](N)C(=O)O)cc1; Phe(4-NH2) = Nc1ccc(C[C@H](N)C(=O)O)cc1; dPhe(2-Me) = Cc1ccccc1C[C@@H](N)C(=O)O; d(hPhe) = N[C@H](CCc1ccccc1)C(=O)O; hPhe = N[C@@H](CCc1ccccc1)C(=O)O; d2Thi = N[C@H](Cc1cccs1)C(=O)O; Suc = O=C(CCC(=O)[*:2])[*:1]; GABA = NCCCC(=O)O; βAla = NCCC(=O)O

Biological target: T1, TNFα / TNFα receptor (TNFα R1/Fc) (Homo sapiens, UniProt P01375)
T1 construct: purchased R&D Systems
Assay: Inhibition of binding of TNFα to the TNFα receptor (plate ELISA competition)
Conditions: Table 2
Description: The compounds listed in Table 2 below were assayed for ability to inhibit binding of TNFα to the TNFα receptor (TNFα R1/Fc). The assays were performed as described in the following procedure: TNFα (R&D Systems) was coated on high binding plate wells (Corning 96-well) at a single uniform concentration of 15 nM, 100 μL/well in PBS. The coating proceeded for 30 minutes at 37° C. then 10 minutes at 4° C. The coated plate was washed with PBST, then 250 μL/well of blocking solution (PBST 0.1% BSA, bovine serum albumin) was added and incubation proceeded for 30-45 minutes at room temperature with agitation. The solution phase competition proceeded separately with the dilutions of test compound in PBST (phosphate buffered saline with Tween 20), 2% DMSO in a polypropylene plate (Corning 96-well storage plate) with a single concentration, 8.33 nM of the high affinity receptor for TNFα (R&D Systems). This solution phase incubation proceeded for 30 minutes at room temperature with agitation and was then added to the washed TNFα coated assay plate, 100 μL/well, and was incubated for a further 30 minutes at room temperature with agitation. The assay plate was washed and 100 μL goat anti-human IgG (Fc) HRP labeled antibody in PBST, 13 pM, (KPL Cat#04-10-2) was added to each well. This incubation proceeded for 25-30 minutes at room temperature with agitation. Following this incubation step, the plate was washed and a 100 μL TMB solution (SUREBLUE™ TMB Peroxidase substrate, KPL) was added per well and allowed to stand approximately 3-5 minutes for development. The TMB reaction was stopped with the addition of 0.5N HCl and then the plate was read for absorbance at 450 nm.

[1] = read-out: Activity (IC50, inhibition of TNFα binding to TNFα R1/Fc)
[2] = Activity (IC50, inhibition of TNFα binding to TNFα R1/Fc)

T1 sequence (P01375 77-233 limits assumed, species assumed): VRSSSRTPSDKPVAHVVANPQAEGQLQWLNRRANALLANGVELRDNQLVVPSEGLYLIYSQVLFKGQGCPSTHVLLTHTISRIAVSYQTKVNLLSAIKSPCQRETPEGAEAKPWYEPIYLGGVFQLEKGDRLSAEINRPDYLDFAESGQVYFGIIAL

Compound	IC50 [1] [µM]	IC50 [2] [µM]
O=C1CCC(=O)N[C@H](CCc2ccccc2)C(=O)N[C@@H](Cc2ccc(C(F)(F)F)cc2)C(=O)N[C@H](Cc2ccccc2)C(=O)N[C@H](C(=O)O)Cc2ccc(cn2)N1 [Compound 548]	30 to 100	–
Cc1ccccc1C[C@H]1NC(=O)[C@H](Cc2ccc(-c3ccccc3)cc2)NC(=O)[C@@H](Cc2cccs2)NC(=O)CCC(=O)Nc2ccc(cc2)C[C@@H](C(=O)O)NC1=O [Compound 80] ([d2Thi][Bip][dPhe(2-Me)][Phe(4-NH2)]-OH; linker N-4 via Suc)	> 100	–
O=C1COc2ccc(cc2)C[C@@H](C(=O)O)NC(=O)[C@H](Cc2ccccc2)NC(=O)[C@H](Cc2ccc(-c3ccccc3)cc2)NC(=O)[C@@H](Cc2cccs2)N1 [Compound 213]	> 100	–
O=C1COc2ccc(cc2)C[C@@H](C(=O)N[C@H](CCc2ccccc2)C(=O)O)NC(=O)[C@H](Cc2c[nH]c3ccccc23)NC(=O)[C@@H](Cc2ccc(-c3ccccc3)cc2)NC(=O)[C@H](Cc2ccncc2)N1 [Compound 745]	–	10 to 30
COc1ccc(C[C@@H]2NC(=O)[C@@H](Cc3cccs3)NC(=O)CCC(=O)Nc3ccc(cc3)C[C@@H](C(=O)O)NC(=O)[C@@H](Cc3ccccc3)NC2=O)cc1 [Compound 104] ([d2Thi]Y(Me)[dF][Phe(4-NH2)]-OH; linker N-4 via Suc)	> 100	–
O=C1CCC(=O)N[C@H](CCc2ccccc2)C(=O)N[C@@H](Cc2ccc(C(F)(F)F)cc2)C(=O)N[C@H](Cc2ccccc2)C(=O)N[C@@H](C(=O)N[C@H](Cc2ccccc2)C(=O)O)Cc2ccc(cc2)N1 [Compound 13] ([d(hPhe)][Phe(4-CF3)][dF][dPhe(4-NH2)][dF]-OH; linker N-4 via Suc)	> 100	–
O=C(O)[C@@H]1Cc2ccc(cc2)NC(=O)[C@H](O)[C@@H](O)C(=O)N[C@H](Cc2cccs2)C(=O)N[C@@H](Cc2ccc(-c3ccccc3)cc2)C(=O)N[C@H](Cc2ccco2)C(=O)N1 [Compound 284]	10 to 30	–
O=C(O)[C@@H]1Cc2ccc(cc2)NC(=O)[C@H](O)[C@@H](O)C(=O)N[C@H](Cc2ccc(F)cc2)C(=O)N[C@@H](Cc2ccc(-c3ccccc3)cc2)C(=O)N[C@H](Cc2ccccc2)C(=O)N1 [Compound 261]	30 to 100	–
O=C(O)[C@@H]1Cc2ccc(cc2)NC(=O)[C@H](O)[C@@H](O)C(=O)N[C@H](Cc2cccs2)C(=O)N[C@@H](Cc2ccc(C(F)(F)F)cc2)C(=O)N[C@H](Cc2ccccc2)C(=O)N1 [Compound 178]	> 100	–
O=C1COc2ccc(cc2)C[C@@H](C(=O)O)NC(=O)[C@@H](CCc2ccccc2)NC(=O)[C@H](Cc2ccc(-c3ccc(C(=O)OCc4ccccc4)cc3)cc2)NC(=O)[C@@H](Cc2cccs2)N1 [Compound 526]	> 100	–
O=C1COc2ccc(cc2)C[C@@H](C(=O)O)NC(=O)[C@H](CCc2ccccc2)NC(=O)[C@@H](Cc2ccc(-c3ccccc3)cc2)NC(=O)C(c2ccccc2)N1 (some centres unmarked) [Compound 507]	10 to 30	–
O=C1COc2ccc(cc2)C[C@H](C(=O)N[C@H](CCc2ccccc2)C(=O)O)NC(=O)[C@H](CCc2ccccc2)NC(=O)[C@@H](Cc2ccc(-c3ccccc3)cc2)NC(=O)[C@H](Cc2c[nH]c3ccccc23)N1 [Compound 737]	–	< 10
O=C1COc2ccc(cc2)C[C@@H](C(=O)O)NC(=O)[C@H](CCc2ccccc2)NC(=O)[C@@H](Cc2ccc(-c3ccncc3)cc2)NC(=O)[C@H](Cc2cccs2)N1 [Compound 658]	–	< 10
O=C1COc2ccc(cc2)C[C@@H](C(=O)O)NC(=O)[C@@H](CCc2ccccc2)NC(=O)[C@H](Cc2ccc(Br)cc2)NC(=O)[C@@H](Cc2cccs2)N1 [Compound 539]	> 100	–
O=C1CCC(=O)N[C@H](Cc2cccs2)C(=O)N[C@@H](Cc2ccc(-c3ccccc3)cc2)C(=O)N[C@H](Cc2ccccc2)C(=O)N[C@H](C(=O)N2CCC[C@@H]2C(=O)O)Cc2ccc(cc2)N1 [Compound 32] ([d2Thi][Bip][dF][Phe(4-NH2)][dP]-OH; linker N-4 via Suc)	> 100	–
O=C1CN(Cc2ccccc2)C(=O)[C@@H](Cc2ccc(-c3ccccc3)cc2)NC(=O)[C@H](Cc2cccs2)NC(=O)COc2ccc(cc2)C[C@@H](C(=O)O)N1 [Compound 253]	> 100	–
O=C1COc2ccc(cc2)C[C@H](C(=O)N[C@H](CCc2ccccc2)C(=O)O)NC(=O)[C@H](Cc2ccccc2F)NC(=O)[C@@H](Cc2ccc(-c3ccccc3)cc2)NC(=O)[C@H](Cc2c[nH]c3ccccc23)N1 [Compound 735]	10 to 30	–
O=C(O)[C@H](Cc1ccccc1)NC(=O)[C@@H]1Cc2ccc(cc2)NC(=O)[C@H](O)[C@@H](O)C(=O)N[C@@H](Cc2cccs2)C(=O)N[C@H](Cc2ccc(Br)cc2)C(=O)N[C@@H](CCc2ccccc2)C(=O)N1 [Compound 437]	10 to 30	–
O=C(O)CCCNC(=O)[C@@H]1Cc2ccc(cc2)NC(=O)CCC(=O)N[C@H](Cc2ccccc2)C(=O)N[C@@H](Cc2ccc(-c3ccccc3)cc2)C(=O)N[C@H](CCc2ccccc2)C(=O)N1 [Compound 460] ([dF][Bip][d(hPhe)][Phe(4-NH2)][GABA]-OH; linker N-4 via Suc)	> 100	–
O=C1COc2ccc(cc2)C[C@@H](C(=O)NCCO)NC(=O)[C@H](CCc2ccccc2)NC(=O)[C@@H](Cc2ccc(-c3ccccc3)cc2)NC(=O)[C@H](Cc2ccncc2)N1 [Compound 578]	> 100	–
O=C1COc2ccc(cc2)C[C@@H](C(=O)O)NC(=O)[C@H](CCc2ccccc2)NC(=O)[C@@H](Cc2ccc(-c3ccccc3)cc2)NC(=O)[C@H](Cc2cscn2)N1 [Compound 696]	< 10	–
O=C1COc2ccc(cc2)C[C@@H](C(=O)O)NC(=O)[C@@H](CCc2ccccc2)NC(=O)[C@H](Cc2ccc(-c3ccccc3)cc2)NC(=O)[C@@H](Cc2cccc(C(F)(F)F)c2)N1 [Compound 520]	< 10	–

Now from value to compound, other results behind:

IC50 [1] [µM]	Compound	IC50 [2] [µM]
< 10	O=C(O)CCCNC(=O)[C@H]1Cc2ccc(cc2)OCC(=O)N[C@@H](Cc2c[nH]c3ccccc23)C(=O)N[C@H](Cc2ccc(-c3ccccc3)cc2)C(=O)N[C@@H](Cc2ccccc2F)C(=O)N1 [compound 713]	–
< 10	O=C1COc2ccc(cc2)C[C@@H](C(=O)O)NC(=O)[C@H](Cc2ccc(-c3ccccc3)cc2)NC(=O)[C@@H](Cc2ccc(-c3ccccc3)cc2)NC(=O)[C@H](CCc2ccccc2)N1 [Compound 725]	–
< 10	O=C1COc2ccc(cc2)C[C@@H](C(=O)O)NC(=O)[C@H](CCc2ccccc2)NC(=O)[C@@H](Cc2ccc(-c3ccccc3)cc2)NC(=O)[C@H](Cc2ccc(Cl)cc2)N1 [Compound 707]	–
< 10	O=C1CCC(=O)N[C@H](CCc2ccccc2)C(=O)N[C@@H](Cc2ccc(-c3ccccc3)cc2)C(=O)N[C@H](Cc2ccccc2)C(=O)N[C@H](C(=O)N[C@@H](CCc2ccccc2)C(=O)O)Cc2ccc(cc2)N1 [Compound 470] ([d(hPhe)][Bip][dF][Phe(4-NH2)][hPhe]-OH; linker N-4 via Suc)	–
< 10	O=C1COc2ccc(cc2)C[C@@H](C(=O)N[C@H](Cc2ccccc2)C(=O)O)NC(=O)[C@H](Cc2ccccc2)NC(=O)[C@H](Cc2ccc(-c3ccccc3)cc2)NC(=O)[C@H](Cc2cccs2)N1 [Compound 228]	–
< 10	O=C1COc2ccc(cc2)C[C@@H](C(=O)O)NC(=O)[C@H](Cc2ccccc2F)NC(=O)[C@@H](Cc2ccc(-c3ccccc3)cc2)NC(=O)[C@H](Cc2c[nH]c3ccccc23)N1 [Compound 733]	–
< 10	O=C(O)CCNC(=O)[C@@H]1Cc2ccc(cc2)OCC(=O)N[C@@H](Cc2ccncc2)C(=O)N[C@H](Cc2ccc(-c3ccccc3)cc2)C(=O)N[C@@H](CCc2ccccc2)C(=O)N1 [Compound 559]	–
< 10	CC(=O)Nc1ccc(C[C@H](NC(=O)[C@@H]2Cc3ccc(cc3)NC(=O)CCC(=O)N[C@H](CCc3ccccc3)C(=O)N[C@@H](Cc3ccc(-c4ccccc4)cc3)C(=O)N[C@H](Cc3ccccc3)C(=O)N2)C(=O)O)cc1 [Compound 528] ([d(hPhe)][Bip][dF][Phe(4-NH2)][Phe(4-NH2)](Ac)-OH; linker N-4 via Suc)	–
< 10	CC(C)(C)c1ccc(C[C@@H]2NC(=O)[C@@H](Cc3ccc(-c4ccccc4)cc3)NC(=O)[C@H](Cc3cccs3)NC(=O)COc3ccc(cc3)C[C@@H](C(=O)O)NC2=O)cc1 [Compound 635]	–
< 10	O=C1CCC(=O)N[C@H](Cc2cccs2)C(=O)N[C@@H](Cc2ccc(-c3ccccc3)cc2)C(=O)N[C@H](CCc2ccccc2)C(=O)N[C@H](C(=O)O)Cc2ccc(cn2)N1 [Compound 547]	–
< 10	O=C1COc2ccc(cc2)C[C@@H](C(=O)N[C@H](Cc2ccccc2)C(=O)O)NC(=O)[C@H](Cc2ccc(O)cc2)NC(=O)[C@@H](Cc2ccc(-c3ccccc3)cc2)NC(=O)[C@H](Cc2cccs2)N1 [Compound 565]	–
< 10	O=C1CCNC(=O)c2ccc(cc2)C[C@@H](C(=O)N[C@H](Cc2ccccc2)C(=O)O)NC(=O)[C@@H](Cc2ccccc2)NC(=O)[C@H](Cc2ccc(-c3ccccc3)cc2)NC(=O)[C@@H](CCc2ccccc2)N1 [Compound 423] ([βAla][d(hPhe)][Bip][dF][Phe(4-COOH)][dF]-OH; lactam N-5)	–
< 10	O=C1COc2ccc(cc2)C[C@@H](C(=O)O)NC(=O)[C@H](CCc2ccccc2)NC(=O)[C@@H](Cc2ccc(-c3ccccc3)cc2)NC(=O)[C@H](Cc2ccc(-c3ccncc3)cc2)N1 [Compound 684]	–
